From patent US20220119354A1, “DIAMINO-SUBSTITUTED PYRIDINES AND PYRIMIDINES AS HERBICIDES” (FMC Corporation, priority 2019, published 2022)

What was measured:
Format in all cases: in vivo
[1] = tested on: ryegrass, Italian (Lolium multiflorum); experiment: Test A postemergence, Italian ryegrass; conditions: 0 to 100 scale
Description: (§1) Seeds of plant species selected from barnyardgrass (Echinochloa crus-galli), kochia (Kochia scoparia), ragweed (common ragweed, Ambrosia elatior), ryegrass, Italian (Lolium multiflorum), foxtail, giant (Setaria faberii), foxtail, green (Setaria viridis), and pigweed (Amaranthus retroflexus) were planted into a blend of loam soil and sand and treated preemergence with a directed soil spray using test chemicals formulated in a non-phytotoxic solvent mixture which included a surfactant.
(§2) At the same time, plants selected from these weed species and also wheat (Triticum aestivum), corn (Zea mays), blackgrass (Alopecurus myosuroides), and galium (catchweed bedstraw, Galium aparine) were planted in pots containing the same blend of loam soil and sand and treated with postemergence applications of test chemicals formulated in the same manner. Plants ranged in height from 2 to 10 cm and were in the one- to two-leaf stage for the postemergence treatment. Treated plants and untreated controls were maintained in a greenhouse for approximately 10 d, after which time all treated plants were compared to untreated controls and visually evaluated for injury. Plant response ratings, summarized in Table A, are based on a 0 to 100 scale where 0 is no effect and 100 is complete control. A dash (-) response means no test result.

[2] = tested on: barnyardgrass (Echinochloa crus-galli); experiment: Test B flooded paddy test, barnyardgrass; conditions: Flood, 250 g ai/ha, applied to paddy water, 2-leaf stage, visual evaluation after 13 to 15 d
Method: (§3) Plant species in the flooded paddy test selected from rice (Oryza sativa), sedge, umbrella (small-flower umbrella sedge, Cyperus difformis), ducksalad (Heteranthera limosa), and barnyardgrass (Echinochloa crus-galli) were grown to the 2-leaf stage for testing. At the time of treatment, test pots were flooded to 3 cm above the soil surface, treated by application of test compounds directly to the paddy water, and then maintained at that water depth for the duration of the test. Treated plants and controls were maintained in a greenhouse for 13 to 15 d, after which time all species were compared to controls and visually evaluated. Plant response ratings, summarized in Table B, are based on a scale of 0 to 100 where 0 is no effect and 100 is complete control. A dash (-) response means no test result.

[3] = tested on: sedge, umbrella (small-flower umbrella sedge, Cyperus difformis); experiment: Test B flooded paddy test, umbrella sedge; conditions: Flood, 250 g ai/ha, applied to paddy water, 2-leaf stage, visual evaluation after 13 to 15 d
Method: as §3

corn (Zea mays) = experiment: Test A postemergence, corn; conditions: 0 to 100 scale
Description: as §1, §2

[4] = tested on: ducksalad (Heteranthera limosa); experiment: Test B flooded paddy test, ducksalad; conditions: Flood, 250 g ai/ha, applied to paddy water, 2-leaf stage, visual evaluation after 13 to 15 d
Method: as §3

kochia (Kochia scoparia) [5] = experiment: Test A preemergence, kochia; conditions: 0 to 100 scale
Description: as §1, §2

[6] = tested on: barnyardgrass (Echinochloa crus-galli); experiment: Test A postemergence, barnyardgrass; conditions: 0 to 100 scale
Description: as §1, §2

[7] = tested on: pigweed (Amaranthus retroflexus); experiment: Test A postemergence, pigweed; conditions: 0 to 100 scale
Description: as §1, §2

[8] = tested on: blackgrass (Alopecurus myosuroides); experiment: Test A postemergence, blackgrass; conditions: 0 to 100 scale
Description: as §1, §2

[9] = tested on: foxtail, giant (Setaria faberii); experiment: Test A postemergence, giant foxtail; conditions: 0 to 100 scale
Description: as §1, §2

[10] = tested on: barnyardgrass (Echinochloa crus-galli); experiment: Test A preemergence, barnyardgrass; conditions: 0 to 100 scale
Description: as §1, §2

[11] = tested on: foxtail, giant (Setaria faberii); experiment: Test A preemergence, giant foxtail; conditions: 0 to 100 scale
Description: as §1, §2

rice (Oryza sativa) = experiment: Test B flooded paddy test, rice; conditions: Flood, 250 g ai/ha, applied to paddy water, 2-leaf stage, visual evaluation after 13 to 15 d
Method: as §3

[12] = tested on: ragweed (common ragweed, Ambrosia elatior); experiment: Test A postemergence, ragweed; conditions: 0 to 100 scale
Description: as §1, §2

[13] = tested on: galium (catchweed bedstraw, Galium aparine); experiment: Test A postemergence, galium; conditions: 0 to 100 scale
Description: as §1, §2

[14] = tested on: wheat (Triticum aestivum); experiment: Test A postemergence, wheat; conditions: 0 to 100 scale
Description: as §1, §2

[15] = tested on: pigweed (Amaranthus retroflexus); experiment: Test A preemergence, pigweed; conditions: 0 to 100 scale
Description: as §1, §2

[16] = tested on: ryegrass, Italian (Lolium multiflorum); experiment: Test A preemergence, Italian ryegrass; conditions: 0 to 100 scale
Description: as §1, §2

kochia (Kochia scoparia) [17] = experiment: Test A postemergence, kochia; conditions: 0 to 100 scale
Description: as §1, §2

Compound	Plant response rating, Ryegrass, Italian ([1]; 125 g ai/ha)	Plant response rating, Ryegrass, Italian ([1]; 500 g ai/ha)	Plant response rating, Barnyardgrass (0 to 100 scale, 0 is no effect, 100 is complete control) [2]	Plant response rating, Sedge, Umbrella (0 to 100 scale, 0 is no effect, 100 is complete control) [3]	Plant response rating, Corn (corn (Zea mays); 125 g ai/ha)	Plant response rating, Corn (corn (Zea mays); 500 g ai/ha)	Plant response rating, Ducksalad (0 to 100 scale, 0 is no effect, 100 is complete control) [4]	Plant response rating, Kochia (kochia (Kochia scoparia) [5]; 125 g ai/ha)	Plant response rating, Kochia (kochia (Kochia scoparia) [5]; 500 g ai/ha)	Plant response rating, Barnyardgrass ([6]; 125 g ai/ha)	Plant response rating, Barnyardgrass ([6]; 500 g ai/ha)	Plant response rating, Pigweed ([7]; 125 g ai/ha)	Plant response rating, Pigweed ([7]; 500 g ai/ha)	Plant response rating, Blackgrass ([8]; 125 g ai/ha)	Plant response rating, Blackgrass ([8]; 500 g ai/ha)	Plant response rating, Foxtail, Giant ([9]; 125 g ai/ha)	Plant response rating, Foxtail, Giant ([9]; 500 g ai/ha)	Plant response rating, Barnyardgrass ([10]; 125 g ai/ha)	Plant response rating, Barnyardgrass ([10]; 500 g ai/ha)	Plant response rating, Foxtail, Giant ([11]; 125 g ai/ha)	also measured
CC(Nc1ncc(C(F)(F)F)c(N)n1)c1cc2ccccc2s1 (racemic) [Compound 16]	0	40	50	95	0	20	15	70	100	30	60	90	100	10	30	20	90	70	100	50	Plant response rating, Foxtail, Giant ([11]; 500 g ai/ha): 100; Plant response rating, Rice (0 to 100 scale, 0 is no effect, 100 is complete control) (rice (Oryza sativa)): 0; Plant response rating, Ragweed ([12]; 125 g ai/ha): 0; Plant response rating, Ragweed ([12]; 500 g ai/ha): 80; Plant response rating, Galium ([13]; 125 g ai/ha): 60; Plant response rating, Galium ([13]; 500 g ai/ha): 80; Plant response rating, Wheat ([14]; 125 g ai/ha): 0; Plant response rating, Wheat ([14]; 500 g ai/ha): 0; Plant response rating, Pigweed ([15]; 125 g ai/ha): 90; Plant response rating, Pigweed ([15]; 500 g ai/ha): 100; Plant response rating, Ryegrass, Italian ([16]; 125 g ai/ha): 0; Plant response rating, Ryegrass, Italian ([16]; 500 g ai/ha): 10; Plant response rating, Kochia (kochia (Kochia scoparia) [17]; 125 g ai/ha): 70; Plant response rating, Kochia (kochia (Kochia scoparia) [17]; 500 g ai/ha): 80
C[C@H](Nc1ncc(C(F)(F)F)c(N)n1)C1Cc2ccccc2C1 [Compound 12]	0	0	0	0	0	0	0	0	0	0	0	30	40	0	0	0	0	0	0	0	Plant response rating, Foxtail, Giant ([11]; 500 g ai/ha): 0; Plant response rating, Rice (0 to 100 scale, 0 is no effect, 100 is complete control) (rice (Oryza sativa)): 0; Plant response rating, Ragweed ([12]; 125 g ai/ha): 0; Plant response rating, Ragweed ([12]; 500 g ai/ha): 0; Plant response rating, Galium ([13]; 125 g ai/ha): 0; Plant response rating, Galium ([13]; 500 g ai/ha): 0; Plant response rating, Wheat ([14]; 125 g ai/ha): 0; Plant response rating, Wheat ([14]; 500 g ai/ha): 0; Plant response rating, Pigweed ([15]; 125 g ai/ha): 0; Plant response rating, Pigweed ([15]; 500 g ai/ha): 50; Plant response rating, Ryegrass, Italian ([16]; 125 g ai/ha): 0; Plant response rating, Ryegrass, Italian ([16]; 500 g ai/ha): 0; Plant response rating, Kochia (kochia (Kochia scoparia) [17]; 125 g ai/ha): 0; Plant response rating, Kochia (kochia (Kochia scoparia) [17]; 500 g ai/ha): 30
Cc1cc2oc([C@@H](C)Nc3ncc(C(F)(F)F)c(N)n3)cc2cc1F [Compound 31]	30	10	0	0	0	30	0	40	90	20	80	90	100	20	10	10	70	70	100	90	Plant response rating, Foxtail, Giant ([11]; 500 g ai/ha): 100; Plant response rating, Rice (0 to 100 scale, 0 is no effect, 100 is complete control) (rice (Oryza sativa)): 0; Plant response rating, Ragweed ([12]; 125 g ai/ha): 60; Plant response rating, Ragweed ([12]; 500 g ai/ha): 90; Plant response rating, Galium ([13]; 125 g ai/ha): 70; Plant response rating, Galium ([13]; 500 g ai/ha): 100; Plant response rating, Wheat ([14]; 125 g ai/ha): 0; Plant response rating, Wheat ([14]; 500 g ai/ha): 0; Plant response rating, Pigweed ([15]; 125 g ai/ha): 90; Plant response rating, Pigweed ([15]; 500 g ai/ha): 100; Plant response rating, Ryegrass, Italian ([16]; 125 g ai/ha): 20; Plant response rating, Ryegrass, Italian ([16]; 500 g ai/ha): 80; Plant response rating, Kochia (kochia (Kochia scoparia) [17]; 125 g ai/ha): 60; Plant response rating, Kochia (kochia (Kochia scoparia) [17]; 500 g ai/ha): 90
